Each block holds one compound with its values, some of them ahead of it.
Experiments:
[1] = Example 2: pharmacokinetics of oral dosing in dogs; format: in vivo; settings: both sexes, beagle, dog, plasma, oral capsules, tosylate salt; for AUC: 0-24 hours
Protocol: For control, the dogs are administered empty capsules. For the Compound of Formula I, the dogs are administered normal-release oral capsules. Blood samples are obtained at 0.25 hours, 0.5 hours, 1 hour, 4 hours, 8 hour and 24 hours. […] Cmax, Tmax and area-under-the-curve (AUC, 0-24 hours) are calculated using Phoenix WinNonlin software.

muscarinic receptors = settings: cited from earlier work
oral bioavailability = settings: in vivo
5-HT2C receptors = biological target: T1, 5-HT2C receptors (Homo sapiens, UniProt P28335); settings: cited from earlier work
T1 sequence (P28335 33-458): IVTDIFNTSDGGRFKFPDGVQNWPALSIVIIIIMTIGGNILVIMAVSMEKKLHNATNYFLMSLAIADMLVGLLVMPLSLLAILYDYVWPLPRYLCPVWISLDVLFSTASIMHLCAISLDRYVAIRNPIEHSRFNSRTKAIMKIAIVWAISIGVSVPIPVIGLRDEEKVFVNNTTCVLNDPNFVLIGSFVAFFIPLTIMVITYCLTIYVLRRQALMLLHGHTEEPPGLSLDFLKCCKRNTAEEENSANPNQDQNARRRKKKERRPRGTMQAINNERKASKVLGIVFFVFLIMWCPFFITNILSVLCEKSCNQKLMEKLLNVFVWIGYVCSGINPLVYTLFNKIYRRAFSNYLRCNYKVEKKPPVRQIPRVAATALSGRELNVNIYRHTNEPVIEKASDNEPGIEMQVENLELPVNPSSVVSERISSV

[2] = Example 3: pharmacokinetics of SC and IV dosing in monkeys; format: in vivo; settings: cynomolgus monkey, 0.5 mg/kg, plasma; for AUC: read-out: AUC, Parent Compound; for Cmax: read-out: Cmax, Parent Compound; for Tmax: read-out: Tmax, Parent Compound
Protocol: Six Cynomolgus monkeys are divided into two groups for IV and SC dosing with the Compound of Formula I. The animals are dosed in a fasting state. Blood samples are collected pre-dose, and at 5 minutes, 15 minutes, 1, 2, 4, 6, 8, 24, 36 and 48 hours post-dose. All blood samples are processed to plasma and later analyzed by liquid chromatography-tandem mass spectrometry. […] PK parameters are calculated using PK Solutions 2.0 software (Summit Research Services, Colorado, US).

[3] = Example 1A: pharmacokinetics of subcutaneous (SC) and sublingual (SL) dosing in dogs; format: in vivo; settings: male, beagle, dog, 1 mg/kg, tosylate salt, plasma; for AUC: 0-24 hours
Protocol: SC Administration: Six male beagle dogs between 2 and 5 years of age are randomized in two groups of three dogs each. […] Dogs in group 2 are administered the Compound of Formula II at a dose of 1 mg/kg (free base equivalent) in a 0.5% methylcellulose/distilled water vehicle. Administration is subcutaneous in the intrascapular region via a 22 or 23 gauge needle. Whole blood samples are collected via the dog's cephalic vein pre-dose, and at post-dose time-points 5, 15 and 30 minutes, 1, 2, 4, 6, 8 and 24 hours. Following a minimum 7-day washout period, the dogs are transferred to the sublingual portion of the study.
Dogs in group 2 are administered the Compound of Formula II at a dose of 1 mg/kg (free base equivalent) in a 0.5% methylcellulose/distilled water vehicle. The animals are anesthetized prior to administration of the dose using propofol (6 mg/kg) and anesthesia is maintained for 30 minutes using 3-4.5% isoflurane. Administration is sublingual and the dosage is applied for 30 minutes, then wiped off using unwoven gauze. Whole blood samples are collected via the dog's cephalic vein pre-dose, and at post-dose time-points 5, 15 and 30 minutes, 1, 2, 4, 6, 8, 24, 36 and 48 hours.
All blood samples are processed to plasma and analyzed for drug concentrations using liquid chromatography-tandem mass spectrometry (LC-MS/MS). Area under the curve (AUC) of parent and metabolites based on plasma versus time data are calculated using Prism 5.04 software (GraphPad Software, Inc.).

[4] = biological target: H1 histaminergic receptors (Homo sapiens, UniProt P35367); settings: cited from earlier work
Chain of H1 histaminergic receptors (P35367 whole entry): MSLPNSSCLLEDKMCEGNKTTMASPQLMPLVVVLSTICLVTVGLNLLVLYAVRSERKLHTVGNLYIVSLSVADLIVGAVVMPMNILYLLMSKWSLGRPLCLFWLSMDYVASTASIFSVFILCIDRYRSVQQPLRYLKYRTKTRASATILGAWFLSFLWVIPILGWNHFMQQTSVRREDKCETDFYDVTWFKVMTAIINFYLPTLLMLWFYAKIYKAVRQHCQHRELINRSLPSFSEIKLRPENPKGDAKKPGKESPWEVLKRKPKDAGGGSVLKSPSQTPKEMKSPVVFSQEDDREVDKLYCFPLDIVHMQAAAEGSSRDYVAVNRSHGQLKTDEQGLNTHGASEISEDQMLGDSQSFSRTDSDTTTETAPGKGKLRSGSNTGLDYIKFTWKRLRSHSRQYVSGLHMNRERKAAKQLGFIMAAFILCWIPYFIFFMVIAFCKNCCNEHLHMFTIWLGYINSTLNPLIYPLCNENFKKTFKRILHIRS

[5] = Example 1B: SC and SL pharmacokinetics in dogs with metabolite analysis; format: in vivo; settings: male, beagle, dog, 1 mg/kg, plasma, analyte parent; for AUC: 0-24 hours
Protocol: SC Administration: Six male beagle dogs between 2 and 5 years of age are randomized in two groups of three dogs each. […] Administration is subcutaneous in the intrascapular region via a 22 or 23 gauge needle. […] Following a minimum 7-day washout period, the dogs are transferred to the sublingual portion of the study. SL Administration: […] The animals are anesthetized prior to administration of the dose using propofol (6 mg/kg) and anesthesia is maintained for 30 minutes using 3-4.5% isoflurane. Administration is sublingual and the dosage is applied for 30 minutes, then wiped off using unwoven gauze. […] All blood samples are processed to plasma and analyzed for drug concentrations using liquid chromatography-tandem mass spectrometry (LC-MS/MS). Area under the curve (AUC) of parent and metabolites based on plasma versus time data are calculated using Prism 5.04 software (GraphPad Software, Inc.). A second study is performed substantially as described for Example 1A, except that plasma samples are analyzed for the parent (administered) compounds, as well as for the major known metabolites. […] The results are summarized in Table 1B below (AUC is shown for 0-24 hours): […]

Cmax ([1]; 2.5 mg/kg): 5.51 ng/mL | Tmax ([1]; 2.5 mg/kg): 0.469 h | AUC ([1]; 2.5 mg/kg): 40 ng·h/mL | Cmax ([1]; 5 mg/kg): 7.72 ng/mL | Tmax ([1]; 5 mg/kg): 0.875 h | AUC ([1]; 5 mg/kg): 52.5 ng·h/mL | Cmax ([1]; 10 mg/kg): 29 ng/mL | Tmax ([1]; 10 mg/kg): 0.813 h | AUC ([1]; 10 mg/kg): 142 ng·h/mL | Cmax ([1]; 15 mg/kg): 44.5 ng/mL | Tmax ([1]; 15 mg/kg): 1.63 h | AUC ([1]; 15 mg/kg): 248 ng·h/mL | bioavailability (oral bioavailability): ≤ 5% | AUC ([2]; Cynomolgus, SC): 220 ng·h/mL | Cmax ([2]; Cynomolgus, SC): 23 ng/mL | Tmax ([2]; Cynomolgus, SC): 2 h | bioavailability ([2]; Cynomolgus, subcutaneous, SC administration, read-out: bioavailability (comparison of IV to SC pharmacokinetics)): ~74% | AUC ([2]; IV): 297 ng·h/mL | Cmax ([2]; IV): 94 ng/mL | Tmax ([2]; IV): 0.083 h | Cmax ([3]; SC): 110 ng/mL | Tmax ([3]; SC): 1 h | AUC ([3]; SC): 813 ng·h/mL | Cmax ([3]; SL): 259 ng/mL | Tmax ([3]; SL): 1 h | AUC ([3]; SL): 734 ng·h/mL | AUC ([5]; SC): 560 ng·h/mL | AUC ([5]; SL): 507 ng·h/mL | Cmax ([5]; SC): 76 ng/mL | Tmax ([5]; SC): 1 h | Cmax ([5]; SL): 179 ng/mL | Tmax ([5]; SL): 1 h
SMILES: CN1CCN2c3c(cccc31)[C@@H]1CN(CCCC(=O)c3ccc(F)cc3)CC[C@@H]12 [Compound of Formula I, 1-(4-fluoro-phenyl)-4-((6bR,10aS)-3-methyl-2,3,6b,9,10,10a-hexahydro-1H,7H-pyrido[3′,4′:4,5]pyrrolo[1,2,3-de]quinoxalin-8-yl)-butan-1-one]
binding to muscarinic receptors (muscarinic receptors): negligible binding | binding to 5-HT2C receptors (5-HT2C receptors): negligible binding | binding to H1 histaminergic receptors [4]: negligible binding

Cmax ([3]; SC): 79 ng/mL | Tmax ([3]; SC): 1 h | AUC ([3]; SC): 785 ng·h/mL | Cmax ([3]; SL): 562 ng/mL | Tmax ([3]; SL): 1 h | AUC ([3]; SL): 1260 ng·h/mL | AUC ([5]; SC): 785 ng·h/mL | AUC ([5]; SL): 1260 ng·h/mL | Cmax ([5]; SC): 79 ng/mL | Tmax ([5]; SC): 1 h | Cmax ([5]; SL): 562 ng/mL | Tmax ([5]; SL): 1 h
SMILES: [2H]C1([2H])CN2c3c(cccc3N1C)[C@@H]1CN(CCCC(=O)c3ccc(F)cc3)CC[C@@H]12 [Compound of Formula II, 1-(4-fluoro-phenyl)-4-((6bR,10aS)-2,2-d2-3-methyl-2,3,6b,9,10,10a-hexahydro-1H,7H-pyrido[3′,4′:4,5]pyrrolo[1,2,3-de]quinoxalin-8-yl)-butan-1-one]
